We go through one molecule from patent publication US20250057876A1, “METHODS FOR TREATING AND/OR PREVENTING LYMPHANGIOGENESIS-ASSOCIATED DISEASES BY USING GOLD NANOCLUSTERS” (MacKay Memorial Hospital, priority 2023, published 2025).

SMILES strings stand for the structures.

The assay concerns ISO-induced cardiac injured mice. Kind of assay: Echocardiography in isoproterenol (ISO)-induced heart failure model. Format: in vivo, mouse. Particulars: co-treatment of MAZ-51 with FANCs in ISO-treated mice, vs ISO+FANC group. The procedure: Male 7-weeks-old C57BL/6 mice were purchased from BioLasco Inc. (Yilan, Taiwan), The mice were treated with FANCs (20 μM; about 0.57 mg/kg body weight) via an abdominal implant using osmotic pump system on Day 0. Then, the mice were subcutaneously treated with ISO (150 mg/kg) on Day 14. After 14 days from ISO injection, echocardiography was performed on Day 28 to measure the cardiac function of the mice. The animals were then sacrificed, and their hearts were harvested for histological and pathological examination.
The experimental echocardiography for the mice was conducted after the mice were anesthetized with isoflurane (Abbott Laboratories Ltd., England; delivered to achieve a concentration of 1-2% in a combination of oxygen and nitrous oxide mixed at a ratio of 50:50 with air). […] Parameters including tissue Doppler used to determine contractile velocity (TDI-S′), deformation-based circumferential systolic strain measure, and quantitative indices of tissue structure integrated backscatter intensity from dynamic myocardial motions, were used to assess systolic myocardial performance using ECG-gated off-line analysis on the EchoPac Workstation.

For `CN(C)c1ccc(/C=C2/C(=O)Nc3ccccc32)c2ccccc12` [MAZ-51, (3E)-3-[[4-(dimethylamino)naphthalen-1-yl]methylidene]-JH-inden-2-one], the “effect on FANCs improved cardiac function” value was “abolished”.
